Measured values from patent US7875618B2, “Substituted imidazo[1,5-a]quinoxalines useful as inhibitors of phosphodiesterase 10 for the treatment of neurological and other disorders” (Wyeth, priority 2007, dated 2011).

Key:
PDE10 from pig striatum = PDE10 from pig striatum (Sus scrofa, UniProt A0A287B941); assay: Inhibition of PDE10 from pig striatum ([3H]-cAMP SPA, Methods A and B); format: biochemical; conditions: PDE10 pig
Experimental: Striatum from male Wistar rats (180-200 g), male hybrid pigs (150 kg) and male guinea pigs (CRL (HA), 500 g) respectively were collected and frozen at −70° C. At the day of preparation 0.5 g striatum was homogenised in 10 ml 50 mM Tris/Mg-buffer at 4° C. and centrifuged for one hour at 100000 g. The supernatant is called the cytosolic fraction and was removed and stored on ice. The pellet was resuspended in the same buffer, but containing 1% Triton and incubated for 45 min at 4° C. Both fractions were independently applied onto a 5 ml Hi Trap™ QHP column at the Äkta-FPLC. After washing the columns the bound PDE protein was eluted with an increasing sodium chloride gradient (0 mM-500 mM sodium chloride) in 50 mM Tris/Mg-buffer at 4° C. for the cytosolic fraction and in the presence of 1% Triton for the membrane fraction. […] The fractions with PDE10-activity were pooled and frozen in aliquots until use at −20° C. PDE10 activity was determined in a one step procedure in microtiter plates. […] Nonspecific activity was tested without the enzyme. The reaction was initiated by addition of the substrate solution and was carried out at 37° C. for 30 minutes. Enzymatic activity was stopped by addition of 25 μl YSi-SPA-beads (Amersham-Pharmacia). One hour later the mixture was measured in a liquid scintillation counter for microtiter plates (Microbeta Trilux). To pipette the incubation mixture a robot Biomek (Fa. Beckman) is used. […] For determination of IC50 values the Hill-plot, 2-parameter-model, was used. […] Striatum from male hybrid pigs (150 kg) were collected and frozen at −70° C. At the day of preparation 0.5 g striatum was homogenised in 10 ml 50 mM Tris/Mg-buffer at 4° C. and centrifuged for one hour at 100000 g. The supernatant was removed and the pellet was resuspended in the same buffer, but containing 1% Triton and incubated for 45 min at 4° C. The membrane fraction was applied onto a 5 ml Hi Trap™ QHP column at the Äkta-FPLC. After washing the column the bound PDE protein was eluted with an increasing sodium chloride gradient (0 mM-500 mM sodium chloride) in 50 mM Tris/Mg-buffer at 4° C. in the presence of 1% Triton. […] The fractions with PDE10-activity were pooled and frozen in aliquots until use at −20° C. PDE10 activity was determined in a one step procedure in microtiterplates. […] Nonspecific activity was tested without the enzyme. The reaction was initiated by addition of the substrate solution and was carried out at 37° C. for 30 minutes. Enzymatic activity was stopped by addition of 25 μl YSi-SPA-beads (Amersham-Pharmacia). One hour later the mixture was measured in a liquid scintillation counter for microtiterplates (Microbeta Trilux). To pipette the incubation mixture a robot Biomek (Fa. Beckman) is used. […] For determination of IC50 values the Hill-plot, 2-parameter-model, was used.

human recombinant PDE10A = target: T1, human recombinant PDE10A (Homo sapiens, UniProt Q9Y233); assay: Inhibition of human recombinant PDE10A ([3H]-cAMP SPA, Method B); format: biochemical; conditions: read-out: PDE10 inhibition IC50 [nM] PDE10A human
T1 construct: made in house; host or cells: SF21 insect cells (baculovirus)
T1 sequence (Q9Y233 1-779 isoform Q9Y233-1): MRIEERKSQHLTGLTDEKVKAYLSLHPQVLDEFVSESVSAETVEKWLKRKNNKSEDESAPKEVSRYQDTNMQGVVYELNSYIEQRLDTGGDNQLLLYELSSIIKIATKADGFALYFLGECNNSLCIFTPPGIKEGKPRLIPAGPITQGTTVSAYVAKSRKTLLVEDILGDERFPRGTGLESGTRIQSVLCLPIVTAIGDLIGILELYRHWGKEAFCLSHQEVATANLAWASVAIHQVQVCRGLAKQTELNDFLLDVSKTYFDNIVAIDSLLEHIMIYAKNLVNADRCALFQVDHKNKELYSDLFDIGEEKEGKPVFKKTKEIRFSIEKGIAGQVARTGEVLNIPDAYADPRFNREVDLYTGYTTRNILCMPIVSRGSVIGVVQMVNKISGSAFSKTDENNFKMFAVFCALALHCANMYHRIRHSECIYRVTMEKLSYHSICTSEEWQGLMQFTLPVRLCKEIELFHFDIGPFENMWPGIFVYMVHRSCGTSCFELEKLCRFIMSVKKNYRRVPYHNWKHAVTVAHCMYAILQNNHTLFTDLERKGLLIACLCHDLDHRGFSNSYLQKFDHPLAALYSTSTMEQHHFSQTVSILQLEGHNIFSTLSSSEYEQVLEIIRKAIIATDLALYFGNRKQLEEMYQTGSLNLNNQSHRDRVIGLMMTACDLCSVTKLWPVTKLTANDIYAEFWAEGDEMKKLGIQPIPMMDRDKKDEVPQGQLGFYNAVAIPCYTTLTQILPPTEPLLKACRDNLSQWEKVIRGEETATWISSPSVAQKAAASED
Experimental: The gene was than inserted into a baculovirus vector, ligated with the baculovirus DNA. The enzyme-protein was expressed in SF21-cells. The enzyme was isolated from these cells by harvesting the cells by a centrifugation at 200 g to collect the cells. The cells were resuspended in 50 mM Tris-HCl/5 mM MgCl2 buffer (pH=7.4) and lysed by a sonication of the cells. The cytosolic PDE10A was obtained by a centrifugation at 48000 g for 1 h in the supernatant and stored at −70° C. PDE10 activity was determined in a one step procedure in microtiterplates. […] Nonspecific activity was tested without the enzyme. The reaction was initiated by addition of the substrate solution and was carried out at 37° C. for 30 minutes. Enzymatic activity was stopped by addition of 25 μl YSi-SPA-beads (Amersham-Pharmacia). One hour later the mixture was measured in a liquid scintillation counter for microtiterplates (Microbeta Trilux). To pipette the incubation mixture a robot Biomek (Fa. Beckman) is used. […] For determination of IC50 values the Hill-plot, 2-parameter-model, was used.

IC50 (PDE10 from pig striatum) [nM] | IC50 (human recombinant PDE10A) [nM] | melting point [°C] | Compound
≥ 100 |  |  | CCc1nc(C)c2c(N)nc3ccc(N4CCCCC4)cc3n12 [Example 1, 1-Ethyl-3-methyl-8-piperidin-1-yl-imidazo(1,5-a)quinoxalin-4-ylamine]
 | 10 to 100 | 99 to 101 | CCCc1nc(C)c2c(C)nc3ccc(OC)cc3n12 [Example 16, 3,4-Dimethyl-8-methoxy-1-propyl-imidazo(1,5-a)quinoxaline]
≥ 100 |  |  | Cc1noc(C)c1-c1nc(C)c2c(C)nc3ccc(F)cc3n12 [Example 30, 1-(3,5-Dimethylisoxazol-4-yl)-8-fluoro-3,4-dimethylimidazo[1,5-a]quinoxaline]
10 to 100 |  |  | CCCc1nc(C)c2c(C)nc3ccccc3n12 [Example 9, 3,4-Dimethyl-1-propyl-imidazo(1,5-a)quinoxaline]
10 to 100 | 10 to 100 |  | Cc1nc(-c2ccccc2Cl)n2c1c(C)nc1cc(O)ccc12 [Example 55, 1-(2-Chlorophenyl)-3,4-dimethyl-7-hydroxy-imidazo(1,5-a)quinoxaline]
10 to 100 |  |  | Cc1nc(-c2cc(Cl)cc(Cl)c2)n2c1c(C)nc1ccc(F)cc12 [Example 20, 1-(3,5-Dichlorophenyl)-8-fluoro-3,4-dimethylimidazo[1,5-a]quinoxaline]
10 to 100 |  |  | Cc1nc(-c2cc(Cl)ccc2Cl)n2c1c(C)nc1ccc(F)cc12 [Example 19, 1-(2,5-Dichlorophenyl)-8-fluoro-3,4-dimethylimidazo[1,5-a]quinoxaline]
10 to 100 |  |  | CCCc1nc(C)c2c(OC)nc3ccc(F)cc3n12 [Example 18, 8-Fluoro-4-methoxy-3-methyl-1-propyl-imidazo(1,5-a)quin-oxaline]
10 to 100 | 10 to 100 |  | Cc1ccsc1-c1nc(C)c2c(C)nc3ccc(F)cc3n12 [Example 29, 8-Fluoro-3,4-dimethyl-1-(3-methyl-2-thienyl)imidazo[1,5-a]quinoxaline]
10 to 100 |  |  | Cc1nc(C2CCCCC2)n2c1c(N)nc1ccc(F)cc12 [Example 2, 1-Cyclohexyl-8-fluoro-3-methyl-imidazo(1,5-a)quinoxalin-4-yl-amine]
≤ 10 |  |  | Cc1nc(-c2ccccc2Cl)n2c1c(N)nc1ccc(F)cc12 [Example 8, 1-(2-Chlorphenyl)-8-fluoro-3-methyl-imidazo(1,5-a)quinoxalin-4-ylamine]
≤ 10 | 10 to 100 |  | Cc1ccccc1-c1nc(C)c2c(C)nc3c(O)cc(O)cc3n12 [Example 54, 6,8-Dihydroxy-3,4-dimethyl-1-(2-methylphenyl)-imidazo[1,5-a]quinoxaline]
10 to 100 |  |  | Cc1nc(-c2ccc(F)cc2F)n2c1c(C)nc1ccc(F)cc12 [Example 22, 1-(2,4-Difluorophenyl)-8-fluoro-3,4-dimethylimidazo[1,5-a]quinoxaline]
≤ 10 | 10 to 100 |  | Cc1nc(-c2ccccc2Cl)n2c1c(C)nc1cc(OCc3cccc(N)c3)ccc12 [Example 60, 7-(3-Aminobenzyloxy)-1-(2-chlorophenyl)-3,4-dimethyl-imidazo(1,5-a)quinoxaline]
≤ 10 |  |  | Cc1nc(-c2ccccc2Cl)n2c1c(Cl)nc1ccc(F)cc12 [Intermediate B8]
10 to 100 |  |  | Cc1cccc(-c2nc(C)c3c(C)nc4ccc(F)cc4n23)c1 [Example 26, 8-Fluoro-3,4-dimethyl-1-(3-methylphenyl)imidazo[1,5-a]quinoxaline]

IC50 (PDE10 from pig striatum) [nM] | IC50 (human recombinant PDE10A) [nM] | melting point [°C] | Compound
≤ 10 |  |  | COc1cc(F)cc2c1nc(C)c1c(C)nc(-c3ccc(F)c(C(N)=O)c3)n12 [Example 86, 2-fluoro-5-(8-fluoro-6-methoxy-3,4-dimethylimidazo[1,5-a]quinoxalin-1-yl)benzamide]
≤ 10 | 10 to 100 |  | Cc1nc(-c2ccccc2Cl)n2c1c(C)nc1cc(OCc3c(F)cccc3F)ccc12 [Example 57, 1-(2-Chloro-phenyl)-7-(2,6-difluorobenzyloxy)-3,4-dimethyl-imidazo(1,5-a)quinoxaline]
 |  | 154 to 159 | CCCc1nc(C)c2c(Cl)nc3cc(OC)ccc3n12 [Intermediate B15]
 |  | 212 to 215 | COc1ccc2nc(Cl)c3c(C)nc(C4CCCCC4)n3c2c1 [Intermediate B11]
≤ 10 | ≤ 10 |  | Cc1nc(-c2ccccc2Cl)n2c1c(C)nc1cc(OCc3ccc4ccccc4n3)ccc12 [Example 58, 1-(2-Chloro-phenyl)-7-(quinolin-2-ylmethoxy)-3,4-dimethyl-imidazo(1,5-a)quinoxaline]
10 to 100 |  |  | Cc1nc(-c2ccccc2C(F)(F)F)n2c1c(C)nc1ccc(F)cc12 [Example 27, 8-Fluoro-3,4-dimethyl-1-[2-(trifluoromethyl)phenyl]imidazo[1,5-a]quinoxaline]
≤ 10 | 10 to 100 |  | CNC(=O)Nc1cccc(COc2ccc3c(c2)nc(C)c2c(C)nc(-c4ccccc4Cl)n23)c1 [Example 61, N-1-{3-[1-(2-Chlorophenyl)-3,4-dimethyl-imidazo(1,5-a)quinoxalin-7-yloxymethyl]-phenyl}-N′-methyl-urea]
≤ 10 |  |  | Cc1ccccc1-c1nc(C)c2c(C)nc3ccc(F)cc3n12 [Example 25, 8-Fluoro-3,4-dimethyl-1-(2-methylphenyl)imidazo[1,5-a]quinoxaline]
≤ 10 | 10 to 100 |  | Cc1nc(-c2ccccc2Cl)n2c1c(C)nc1cc(OCc3cccc([N+](=O)[O-])c3)ccc12 [Example 59, 1-(2-Chloro-phenyl)-3,4-dimethyl-7-(3-nitrobenzyloxy)-imidazo(1,5-a)quinoxaline]
10 to 100 | ≥ 100 |  | Cc1nc(-c2ccccc2OC(F)(F)F)n2c1c(C)nc1ccc(F)cc12 [Example 28, 8-Fluoro-3,4-dimethyl-1-[2-(trifluoromethoxy)phenyl]imidazo[1,5-a]quinoxaline]
≤ 10 | ≤ 10 |  | Cc1ccccc1-c1nc(C)c2c(C)nc3c(OC(F)F)cc(OC(F)F)cc3n12 [Example 56, 6,8-Bis-difluoromethoxy-3,4-dimethyl-1-(2-methylphenyl)-imidazo(1,5-a)quinoxaline]
10 to 100 |  |  | COc1ccccc1-c1nc(C)c2c(C)nc3ccc(F)cc3n12 [Example 23, 8-Fluoro-1-(2-methoxyphenyl)-3,4-dimethylimidazo[1,5-a]quinoxaline]
≤ 10 |  |  | COc1cccc(-c2nc(C)c3c(C)nc4ccc(F)cc4n23)c1 [Example 24, 8-Fluoro-1-(3-methoxyphenyl)-3,4-dimethylimidazo[1,5-a]quinoxaline]
 |  | 165 to 168 | Cc1nc(C2CCCCC2)n2c1c(Cl)nc1ccc(OCC3CC3)cc12 [Intermediate B13]
10 to 100 |  |  | Cc1nc(-c2cccc(Cl)c2)n2c1c(C)nc1ccc(F)cc12 [Example 21, 1-(3-Chlorophenyl)-8-fluoro-3,4-dimethylimidazo[1,5-a]quinoxaline]
10 to 100 |  |  | CCc1nc(C)c2c(Cl)nc3ccc(N4CCCCC4)cc3n12 [Intermediate B2, 4-Chloro-1-ethyl-3-methyl-8-piperidin-1-yl-imidazo(1,5-a)quinoxaline]

Compound | IC50 (PDE10 from pig striatum) [nM] | IC50 (human recombinant PDE10A) [nM] | melting point [°C]
7-Methoxy-3-methyl-1-propyl-imidazo[1,5-a]quinoxalin-4-ylamine [Example 41] | 10 to 100 | 10 to 100 | 
Cc1nc(-c2ccccc2Cl)n2c1c(C)nc1ccc(F)cc12 [Example 15, 1-(2-Chlorphenyl)-3,4-dimethyl-8-fluoro-imidazo(1,5-a)quinoxaline] | ≤ 10 | 10 to 100 | 
